The values that follow are results of earlier work, collected in patent US20060080073A1, “Three-dimensional structural activity correlation method” (priority 2002, published 2006).

The data set deals with T1, human corticosteroid-binding globulin (Homo sapiens, UniProt P08185).
T1 sequence (P08185 23-405): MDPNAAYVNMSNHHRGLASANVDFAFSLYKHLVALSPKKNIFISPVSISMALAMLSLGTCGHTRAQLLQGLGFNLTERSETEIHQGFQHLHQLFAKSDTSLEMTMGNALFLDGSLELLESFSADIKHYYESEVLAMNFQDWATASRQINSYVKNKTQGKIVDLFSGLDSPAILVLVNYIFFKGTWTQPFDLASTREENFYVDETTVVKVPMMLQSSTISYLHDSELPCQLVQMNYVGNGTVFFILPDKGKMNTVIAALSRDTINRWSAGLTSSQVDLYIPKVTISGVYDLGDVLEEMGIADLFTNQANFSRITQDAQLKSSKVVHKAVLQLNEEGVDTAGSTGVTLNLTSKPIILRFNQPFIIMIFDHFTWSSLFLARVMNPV
The following applies: steroid derivatives disclosed by Cramer et al. (CoMFA benchmark); values given as negative logarithmic numbers, no unit.
Regarding `C[C@]12CCC(=O)C=C1CC[C@@H]1[C@@H]2[C@@H](O)C[C@]2(C=O)[C@@H](C(=O)CO)CC[C@@H]12` [aldosterone], the “Binding affinity to human corticosteroid-binding globulins (CBG)” value (from here on “Binding affinity”) is −6.279. `C[C@]12CCC(O)CC1CC[C@@H]1[C@@H]2CC[C@]2(C)C(O)CC[C@@H]12` (stereo partly drawn) [androstandiol]: the “Binding affinity” value is listed as −5.000. Take `C[C@]12CCC(=O)C=C1CC[C@@H]1[C@@H]2CC[C@]2(C)C(=O)CC[C@@H]12` [androstenedione]: the “Binding affinity” value is −5.763. In the case of `C[C@]12CC[C@@H](O)C[C@@H]1CC[C@@H]1[C@@H]2CC[C@]2(C)C(=O)CC[C@@H]12` [androsterone], the “Binding affinity” value is on record as −5.613.

As to `C[C@]12C[C@H](O)[C@H]3[C@@H](CCC4=CC(=O)CC[C@@]43C)[C@@H]1CC[C@@H]2C(=O)CO` [corticosterone], the “Binding affinity” value was −7.881. As to `C[C@]12CCC(=O)C=C1CC[C@@H]1[C@@H]2[C@@H](O)C[C@@]2(C)[C@H]1CC[C@]2(O)C(=O)CO` [cortisol], the “Binding affinity” value is −7.881. On to `C[C@]12CCC(=O)C=C1CC[C@@H]1[C@@H]2C(=O)C[C@@]2(C)[C@H]1CC[C@]2(O)C(=O)CO` [cortisone], for which the “Binding affinity” value is on record as −6.892. On to `C[C@]12CC[C@H](O)CC1=CC[C@@H]1[C@@H]2CC[C@]2(C)C(=O)CC[C@@H]12` [dehydroepiandrosterone], for which the “Binding affinity” value is −5.000.

In the case of `C[C@]12CC[C@H]3[C@@H](CCC4=CC(=O)CC[C@@]43C)[C@@H]1CC[C@@H]2C(=O)CO` [deoxycorticosterone], the “Binding affinity” value is reported as −7.653. In the case of `C[C@]12CCC(=O)C=C1CC[C@@H]1[C@@H]2CC[C@@]2(C)[C@H]1CC[C@]2(O)C(=O)CO` [deoxycortisole], the “Binding affinity” value is −7.881. With `C[C@]12CCC(=O)C[C@@H]1CC[C@@H]1[C@@H]2CC[C@]2(C)[C@@H](O)CC[C@@H]12` [dihydrotestosterone], the “Binding affinity” value was −5.919.

Turning to `C[C@]12CC[C@@H]3c4ccc(O)cc4CC[C@H]3[C@@H]1C[C@@H](O)[C@@H]2O` [estriol], the “Binding affinity” value is listed as −5.000.

`C[C@]12CC[C@@H](O)C[C@H]1CC[C@@H]1[C@@H]2CC[C@]2(C)C(=O)CC[C@@H]12` [etiocholanolone]: the “Binding affinity” value is given as −5.255. Regarding `CC(=O)[C@@]1(O)CC[C@H]2[C@@H]3CC[C@@H]4C[C@H](O)CC[C@]4(C)[C@H]3CC[C@@]21C` [hydroxy pregnenolone], the “Binding affinity” value is −5.000.

As for `CC(=O)[C@@]1(O)CC[C@H]2[C@@H]3CCC4=CC(=O)CC[C@]4(C)[C@H]3CC[C@@]21C` [hydroxy progesterone], the “Binding affinity” value is recorded as −7.740. In the case of `CC(=O)[C@H]1CC[C@H]2[C@@H]3CC=C4C[C@@H](O)CC[C@]4(C)[C@H]3CC[C@]12C` [pregnenolone], the “Binding affinity” value was −5.255.

On to `CC(=O)[C@H]1CC[C@H]2[C@@H]3CCC4=CC(=O)CC[C@]4(C)[C@H]3CC[C@]12C` [progesterone], for which the “Binding affinity” value is −7.380.

Take `C[C@]12CC[C@H]3[C@@H](CCC4=CC(=O)CC[C@@]43C)[C@@H]1CC[C@@H]2O` [teststerone]: the “Binding affinity” value was −6.724.
